Data: the supplement of paper PMC10307832

How the values were obtained:
Test in all cases: relative viability (nuclei count vs DMSO), 5 days (fraction); higher = more cells survive
BEN = system: BEN
Procedure, shortened: (§1)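 Dosing by pin tool came one day after lung cancer cell lines were seeded in 1536-well plates, using either one drug or a fixed anchor-drug dose plus five library-drug doses (not always all listed) in √10 steps. After 5 days, nuclei were counted on 4× images. Relative viability is treated-well nuclei count divided by vehicle-well nuclei count, and values are medians of duplicate plates.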

CAL-12T = system: CAL-12T
Procedure, shortened: as §1

EKVX = system: EKVX
Procedure, shortened: as §1

HCC-366 = system: HCC-366
Procedure, shortened: as §1

LOU-NH91 = system: LOU-NH91
Procedure, shortened: as §1

LU99A = system: LU99A
Procedure, shortened: as §1

NCI-H1355 = system: NCI-H1355
Procedure, shortened: as §1

NCI-H1395 = system: NCI-H1395
Procedure, shortened: as §1

NCI-H1437 = system: NCI-H1437
Procedure, shortened: as §1

NCI-H1563 = system: NCI-H1563
Procedure, shortened: as §1

NCI-H1650 = system: NCI-H1650
Procedure, shortened: as §1

NCI-H1651 = system: NCI-H1651
Procedure, shortened: as §1

NCI-H1734 = system: NCI-H1734
Procedure, shortened: as §1

NCI-H1755 = system: NCI-H1755
Procedure, shortened: as §1

NCI-H1975 = system: NCI-H1975
Procedure, shortened: as §1

NCI-H2023 = system: NCI-H2023
Procedure, shortened: as §1

NCI-H2085 = system: NCI-H2085
Procedure, shortened: as §1

NCI-H2342 = system: NCI-H2342
Procedure, shortened: as §1

NCI-H358 = system: NCI-H358
Procedure, shortened: as §1

NCI-H441 = system: NCI-H441
Procedure, shortened: as §1

NCI-H460 = system: NCI-H460
Procedure, shortened: as §1

NCI-H838 = system: NCI-H838
Procedure, shortened: as §1

C=C1C(=O)O[C@@H](CCCCCCCC)[C@@H]1C(=O)O [C-75] + COc1cc2c(Oc3ccc(NC(=O)C4(C(=O)Nc5ccc(F)cc5)CC4)cc3F)ccnc2cc1OCCCN1CCOCC1 [Foretinib] (partner 0.25 µM)
relative viability (BEN; first compound 0.08 µM): 0.712
relative viability (BEN; first compound 0.253 µM): 0.671
relative viability (BEN; first compound 0.8 µM): 0.547
relative viability (BEN; first compound 8 µM): 0.478
relative viability (CAL-12T; first compound 0.08 µM): 1.17
relative viability (CAL-12T; first compound 0.253 µM): 1.34
relative viability (CAL-12T; first compound 0.8 µM): 1.07
relative viability (CAL-12T; first compound 2.53 µM): 1.05
relative viability (CAL-12T; first compound 8 µM): 1.25
relative viability (EKVX; first compound 0.08 µM): 0.644
relative viability (EKVX; first compound 0.253 µM): 0.925
relative viability (EKVX; first compound 0.8 µM): 0.782
relative viability (EKVX; first compound 8 µM): 1.06
relative viability (HCC-366; first compound 0.08 µM): 0.909
relative viability (HCC-366; first compound 0.253 µM): 0.961
relative viability (HCC-366; first compound 0.8 µM): 0.877
relative viability (HCC-366; first compound 8 µM): 0.845
relative viability (LOU-NH91; first compound 0.08 µM): 0.938
relative viability (LOU-NH91; first compound 0.253 µM): 0.873
relative viability (LOU-NH91; first compound 0.8 µM): 0.903
relative viability (LOU-NH91; first compound 2.53 µM): 0.914
relative viability (LOU-NH91; first compound 8 µM): 0.948
relative viability (LU99A; first compound 0.08 µM): 0.809
relative viability (LU99A; first compound 0.253 µM): 0.71
relative viability (LU99A; first compound 0.8 µM): 0.831
relative viability (LU99A; first compound 2.53 µM): 0.783
relative viability (LU99A; first compound 8 µM): 0.63
relative viability (NCI-H1355; first compound 0.08 µM): 0.948
relative viability (NCI-H1355; first compound 0.253 µM): 0.892
relative viability (NCI-H1355; first compound 0.8 µM): 0.972
relative viability (NCI-H1355; first compound 2.53 µM): 0.927
relative viability (NCI-H1355; first compound 8 µM): 0.958
relative viability (NCI-H1395; first compound 0.08 µM): 0.894
relative viability (NCI-H1395; first compound 0.253 µM): 1.02
relative viability (NCI-H1395; first compound 0.8 µM): 0.948
relative viability (NCI-H1395; first compound 2.53 µM): 1.03
relative viability (NCI-H1395; first compound 8 µM): 1.13
relative viability (NCI-H1437; first compound 0.08 µM): 1.27
relative viability (NCI-H1437; first compound 0.253 µM): 1.45
relative viability (NCI-H1437; first compound 0.8 µM): 1.28
relative viability (NCI-H1437; first compound 2.53 µM): 1.13
relative viability (NCI-H1437; first compound 8 µM): 1.23
relative viability (NCI-H1563; first compound 0.08 µM): 0.953
relative viability (NCI-H1563; first compound 0.253 µM): 0.955
relative viability (NCI-H1563; first compound 0.8 µM): 0.883
relative viability (NCI-H1563; first compound 2.53 µM): 0.844
relative viability (NCI-H1563; first compound 8 µM): 0.877
relative viability (NCI-H1650; first compound 0.08 µM): 1.2
relative viability (NCI-H1650; first compound 0.253 µM): 1.41
relative viability (NCI-H1650; first compound 2.53 µM): 1.11
relative viability (NCI-H1650; first compound 8 µM): 1.04
relative viability (NCI-H1651; first compound 0.08 µM): 0.83
relative viability (NCI-H1651; first compound 0.253 µM): 0.944
relative viability (NCI-H1651; first compound 0.8 µM): 0.725
relative viability (NCI-H1651; first compound 2.53 µM): 0.668
relative viability (NCI-H1651; first compound 8 µM): 0.958
relative viability (NCI-H1734; first compound 0.08 µM): 0.942
relative viability (NCI-H1734; first compound 0.253 µM): 0.819
relative viability (NCI-H1734; first compound 0.8 µM): 0.78
relative viability (NCI-H1734; first compound 2.53 µM): 0.476
relative viability (NCI-H1734; first compound 8 µM): 0.748
relative viability (NCI-H1755; first compound 0.08 µM): 0.922
relative viability (NCI-H1755; first compound 0.253 µM): 0.886
relative viability (NCI-H1755; first compound 0.8 µM): 0.94
relative viability (NCI-H1755; first compound 2.53 µM): 0.888
relative viability (NCI-H1755; first compound 8 µM): 0.878
relative viability (NCI-H1975; first compound 0.08 µM): 0.917
relative viability (NCI-H1975; first compound 0.253 µM): 0.834
relative viability (NCI-H1975; first compound 0.8 µM): 0.974
relative viability (NCI-H1975; first compound 2.53 µM): 0.785
relative viability (NCI-H1975; first compound 8 µM): 0.878
relative viability (NCI-H2023; first compound 0.08 µM): 0.798
relative viability (NCI-H2023; first compound 0.253 µM): 1.05
relative viability (NCI-H2023; first compound 0.8 µM): 0.714
relative viability (NCI-H2023; first compound 2.53 µM): 0.943
relative viability (NCI-H2023; first compound 8 µM): 1.07
relative viability (NCI-H2085; first compound 0.08 µM): 0.842
relative viability (NCI-H2085; first compound 0.253 µM): 0.879
relative viability (NCI-H2085; first compound 0.8 µM): 0.921
relative viability (NCI-H2085; first compound 2.53 µM): 0.782
relative viability (NCI-H2085; first compound 8 µM): 1.14
relative viability (NCI-H2342; first compound 0.08 µM): 1.11
relative viability (NCI-H2342; first compound 0.253 µM): 1.13
relative viability (NCI-H2342; first compound 0.8 µM): 1.04
relative viability (NCI-H2342; first compound 2.53 µM): 0.923
relative viability (NCI-H2342; first compound 8 µM): 1.17
relative viability (NCI-H358; first compound 0.08 µM): 0.748
relative viability (NCI-H358; first compound 0.253 µM): 0.623
relative viability (NCI-H358; first compound 0.8 µM): 0.565
relative viability (NCI-H358; first compound 2.53 µM): 0.595
relative viability (NCI-H358; first compound 8 µM): 0.511
relative viability (NCI-H441; first compound 0.08 µM): 1.01
relative viability (NCI-H441; first compound 0.253 µM): 0.958
relative viability (NCI-H441; first compound 0.8 µM): 1.03
relative viability (NCI-H441; first compound 2.53 µM): 0.789
relative viability (NCI-H441; first compound 8 µM): 1.15
relative viability (NCI-H460; first compound 0.08 µM): 1.01
relative viability (NCI-H460; first compound 0.253 µM): 1.09
relative viability (NCI-H460; first compound 0.8 µM): 0.891
relative viability (NCI-H460; first compound 8 µM): 0.977
relative viability (NCI-H838; first compound 0.08 µM): 1.06
relative viability (NCI-H838; first compound 0.8 µM): 0.948
relative viability (NCI-H838; first compound 2.53 µM): 0.861
relative viability (NCI-H838; first compound 8 µM): 0.964
